“Also recorded” adds a separate entry of the source.

In data set [1] the test system is E. coli. The data set can be described thus: Biofilm resistance of UV-cured coatings after E. coli growth and staining. In kind it is cell-based. The conditions noted are these: for biofilm resistance (lack of blue coloring): 15 and 20 weight % monomer in the coating; for biofilm formation: 15 and 20 weight percent monomer, increased E. coli broth concentration, approaching 10^9 cells/mL. The source says:
Materials and methods were the same as disclosed in the Examples 1 and 2, above, except that the polymers were not adhered to steel, but to 24-well, plastic (i.e., poly(styrene)) culture plates.
The coatings were applied to and UV-cured onto four uncoated 24-well plastic plates to a calculated thickness of two mils. The monomers of the compositions were phenyl acrylate (PA) as the non-biofilm resistant control monomer, 3-chlorophenyl acrylate (CPA), 2,4-dichlorophenyl acrylate (DCPA), 4-bromophenyl acrylate (BPA) and 2,4-dibromophenyl acrylate (DBPA).
The coatings were cured with the curing apparatus and sterilized with 95% ethanol. E. coli was grown in a LB agar broth and added to the cell plates with sterile, deionized water at four concentrations, one concentration per plate. The plates were incubated for twenty-four hours at 37° C. The E. coli was then rinsed from the plates with sterile, deionized water and sprayed with the cytology fixative [poly(ethylene glycol)-based]. After the fixative was air dried it was soaked with 95% ethanol for ten minutes for further sterilization. The plates were then rinsed with sterile, deionized water and four drops of Hema-diff solution were added for four seconds.

The nature of data set [2]: Roughness of cured coatings by atomic force microscopy (Sy, peak to valley distance). In kind it is physicochemical. The conditions noted are these: 5, 10, 15 and 20 weight percent monomer in the coating; FIGS. 1 and 2.
Experimental: To determine the roughness of the cured formulations, polymers consisting of each of five monomers were tested using atomic force microscopy (AFM) scanning and applying the non-contact mode dragging of the cantilever. Each of the polymers consisting of the monomers: phenyl acrylate (PA), 3-chlorophenyl acrylate (CPA), 2,4-dichlorophenyl acrylate (DCPA), 4-bromophenyl acrylate (BPA) and 2,4-dibromophenyl acrylate (DBPA) were tested at 5, 10, 15 and 20 percent of the monomer by weight (the “Coating Level”).
Each scanning location was approximately an 80 μm×80 μm area (6400 μm^2). To eliminate the effects of interference on the roughness measurements, two scans were taken at each location in the X and Y direction. These two roughness calculations were averaged to yield the roughness calculation for each location. Three locations were selected for each plate and then the average roughness was calculated for all three locations in order to minimize statistical variance yielding an overall plate roughness average, Sa as determined via Equation 1.
[formula] […] The following equation was used to determine the average peak to valley distance, Sy value, (Equation 2) for each composition at each coating level. Sy=Speak−Svalley Equation 2 The Sy value is the value typically used in the industry to determine the propensity for biofilm resistance of a smooth surface.

Consider `C=CC(=O)Oc1cccc(Cl)c1` [CPA, 3-chlorophenyl acrylate], for which the “biofilm resistance (lack of blue coloring)” value (from here on “biofilm resistance”) in data set [1] (FIG. 4) is “excellent biofilm resistance”. Moreover, the biofilm formation result in data set [1] is recorded as “no evidence of biofilm formation”.
For the molecule `C=CC(=O)Oc1ccc(Br)cc1Br` [DBPA, 2,4-dibromophenyl acrylate], the “biofilm resistance” value in data set [1] (FIG. 4) is on record as “excellent biofilm resistance”. Moreover, in data set [1], the biofilm formation entry is given as “no evidence of biofilm formation”.
Regarding `C=CC(=O)Oc1ccc(Cl)cc1Cl` [DCPA, 2,4-dichlorophenyl acrylate], in data set [1] (FIG. 4), the “biofilm resistance” value is listed as “excellent biofilm resistance”. The biofilm formation entry in data set [1] was “no evidence of biofilm formation”.
In the case of `C=CC(=O)Oc1ccccc1` [PA, phenyl acrylate, reference compound], in data set [1] (coating containing the internal control monomer, 24 h at 37° C., FIG. 4), the “bacterial growth on the coating (blue tinting)” value was “bacterial growth”. In addition, in data set [1] (monomer without halogens, used as internal standard or control), the biofilm inhibitory activity result was “no biofilm inhibitory activity; also recorded: biologically inactive”. Moreover, in data set [2], the “smoothness of the coating (Sy)” value is “did not enhance the smoothness”.
